Test results as given in ChEMBL document CHEMBL1141991, “Functionalized dendrimers as endotoxin sponges” (Bioorg Med Chem Lett, 2005).

How the values were obtained:
[1] = Inhibitory concentration against lipopolysaccharide in BC fluorescenced murine macrophages J774A; type: functional, Mus musculus
Mus musculus = species on record: Mus musculus; assay: Effective dose against lipopolysaccharide in BC fluorescenced murine macrophages J774A; type: functional

Sequence | IC50 [1] | ED50 (Mus musculus)
POLYMYXIN B [listing 1 of 2 here] | 210 µM | 
POLYMYXIN B [listing 2 of 2 here] |  | 0.31 µM
